Data on 6 compounds can be found in patent publication US9486506B2 (Novo Nordisk A/S, priority 2011, dated 2016).

Numbered stars: 1 amine (or outer) side, 2 acyl side, 3 side chain; on linkers, the order of the positions; unused ones are H or OH. Side chains are listed from the residue outwards. Peptide text beside a SMILES is read from it. * marks the point of attachment. X1 = O=C(CCCCCCCCCCCCCCCc1nnn[nH]1)NS(=O)(=O)CCCC(=O)*; C18 diacid = O=C(O)CCCCCCCCCCCCCCCCC(=O)*; C16 diacid = O=C(O)CCCCCCCCCCCCCCC(=O)*; γGlu = O=C(O)[C@H](CCC(=O)[*:2])N[*:1]; AEEA = NCCOCCOCC(=O)O

Data set [1] can be described thus: Assay (X) Chemical stability assessment by RP-UPLC. The data set is classed as physicochemical. The note with it: pH 8.15, 14 days at 37° C. vs 5° C., 333 μM.
Data set [2] deals with T1, glucagon receptor (Homo sapiens, UniProt P47871).
T1 construct: expressed in transfected cells
T1 sequence (P47871 26-477): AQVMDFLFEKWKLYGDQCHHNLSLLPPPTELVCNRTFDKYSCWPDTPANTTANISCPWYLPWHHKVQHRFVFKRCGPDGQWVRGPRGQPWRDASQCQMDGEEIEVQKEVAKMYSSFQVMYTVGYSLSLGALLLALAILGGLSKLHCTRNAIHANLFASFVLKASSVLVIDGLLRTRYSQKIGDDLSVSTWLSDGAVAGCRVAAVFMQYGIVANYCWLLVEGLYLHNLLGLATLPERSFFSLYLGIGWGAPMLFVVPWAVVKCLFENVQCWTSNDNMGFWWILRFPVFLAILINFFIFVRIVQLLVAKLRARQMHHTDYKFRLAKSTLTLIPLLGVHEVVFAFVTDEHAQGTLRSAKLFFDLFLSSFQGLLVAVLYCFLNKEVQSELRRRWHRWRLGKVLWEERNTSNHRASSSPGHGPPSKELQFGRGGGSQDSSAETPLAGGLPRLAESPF
The data set is described as follows: Assay (I) Glucagon activity (cAMP biosensor, FLIPR). Format: cell-based.

In the case of `CC(C)C[C@H](NC(=O)[C@H](CC(C)C)NC(=O)[C@H](Cc1c[nH]c2ccccc12)NC(=O)[C@H](CCCCNC(=O)CC[C@H](NC(=O)CC[C@H](NC(=O)COCCOCCNC(=O)COCCOCCNC(=O)CC[C@H](NC(=O)CCCCCCCCCCCCCCCCC(=O)O)C(=O)O)C(=O)O)C(=O)O)NC(=O)[C@@H](NC(=O)[C@H](Cc1ccccc1)NC(=O)[C@H](CC(=O)O)NC(=O)[C@H](CCC(N)=O)NC(=O)[C@H](C)NC(=O)[C@H](CCCNC(=N)N)NC(=O)[C@H](CCCNC(=N)N)NC(=O)[C@H](CC(C)C)NC(=O)[C@H](CC(=O)O)NC(=O)[C@H](CC(C)C)NC(=O)[C@H](Cc1ccc(O)cc1)NC(=O)[C@H](CCCNC(=N)N)NC(=O)[C@H](CO)NC(=O)[C@H](Cc1ccc(O)cc1)NC(=O)[C@H](CC(=O)O)NC(=O)[C@H](CO)NC(=O)[C@@H](NC(=O)[C@H](Cc1ccccc1)NC(=O)[C@@H](NC(=O)CNC(=O)[C@H](CCC(N)=O)NC(=O)[C@H](CO)NC(=O)[C@@H](N)Cc1c[nH]cn1)[C@@H](C)O)[C@@H](C)O)C(C)C)C(=O)N[C@@H](C)C(=O)N[C@H](C(=O)O)[C@@H](C)O` [Example 87, N^ε24-[(4S)-4-carboxy-4-[[(4S)-4-carboxy-4-[[2-[2-[2-[[2-[2-[2-[[(4S)-4-carboxy-4-(17-carboxyheptadecanoylamino)butanoyl]amino]ethoxy]ethoxy]acetyl]amino]ethoxy]ethoxy]acetyl]amino]butanoyl]amino]butanoyl]-[Arg12,Leu16,Lys24,Leu27,Ala28]-Glucagon] (H-HSQGTFTSDYSRYLDLRRAQDFVK([γGlu-γGlu-AEEA-AEEA-γGlu-C18 diacid])WLLAT-OH), the “Chemical stability [Purity loss/14 days 37 C.]” value in data set [1] is given as 5.8%. The midpoint of the response in data set [2], the EC50, lay at 0.253 nM.

Take `CC(C)C[C@H](NC(=O)[C@H](Cc1ccc(O)cc1)NC(=O)[C@H](CCCCN)NC(=O)[C@H](CO)NC(=O)[C@H](Cc1ccc(O)cc1)NC(=O)[C@H](CC(=O)O)NC(=O)[C@H](CO)NC(=O)[C@@H](NC(=O)[C@H](Cc1ccccc1)NC(=O)[C@@H](NC(=O)CNC(=O)[C@H](CCC(N)=O)NC(=O)[C@H](CO)NC(=O)[C@@H](N)Cc1c[nH]cn1)[C@@H](C)O)[C@@H](C)O)C(=O)N[C@@H](CCC(=O)O)C(=O)N[C@@H](CO)C(=O)N[C@@H](CCCNC(=N)N)C(=O)N[C@@H](CCCNC(=N)N)C(=O)N[C@@H](C)C(=O)N[C@@H](CCC(N)=O)C(=O)N[C@@H](CC(=O)O)C(=O)N[C@@H](Cc1ccccc1)C(=O)N[C@H](C(=O)N[C@@H](CCCCNC(=O)CC[C@H](NC(=O)CC[C@H](NC(=O)COCCOCCNC(=O)CCCS(=O)(=O)NC(=O)CCCCCCCCCCCCCCCc1nnn[nH]1)C(=O)O)C(=O)O)C(=O)N[C@@H](Cc1c[nH]c2ccccc12)C(=O)N[C@@H](CC(C)C)C(=O)N[C@@H](CC(C)C)C(=O)N[C@@H](CO)C(=O)N[C@H](C(=O)O)[C@@H](C)O)C(C)C` [Example 66, N^ε24-[(4S)-4-carboxy-4-[[(4S)-4-carboxy-4-[[2-[2-[2-[4-[16-(1H-tetrazol-5-yl)hexadecanoylsulfarnoyl]butanoylamino]ethoxy]ethoxy]acetyl]amino]butanoyl]amino]butanoyl][Glu15,Lys24,Leu27,Ser28]-Glucagon] (H-HSQGTFTSDYSKYLESRRAQDFVK([γGlu-γGlu-AEEA-X1])WLLST-OH; N-terminus and C-terminus assumed): in data set [1], the “Chemical stability [Purity loss/14 days 37 C.]” value amounted to 8.3%. For the same compound, the EC50 (usually the concentration giving half of the maximal effect) in data set [2] was found to be 0.395 nM.

Turning to `CC(C)C[C@H](NC(=O)[C@H](CC(=O)O)NC(=O)[C@H](CC(C)C)NC(=O)[C@H](Cc1ccc(O)cc1)NC(=O)[C@H](CCCCN)NC(=O)[C@H](CO)NC(=O)[C@H](Cc1ccc(O)cc1)NC(=O)[C@H](CC(=O)O)NC(=O)[C@H](CO)NC(=O)[C@@H](NC(=O)[C@H](Cc1ccccc1)NC(=O)[C@@H](NC(=O)CNC(=O)[C@H](CCC(N)=O)NC(=O)[C@H](CO)NC(=O)[C@@H](N)Cc1c[nH]cn1)[C@@H](C)O)[C@@H](C)O)C(=O)N[C@@H](CCCNC(=N)N)C(=O)N[C@@H](CCCNC(=N)N)C(=O)N[C@@H](C)C(=O)N[C@@H](CCC(N)=O)C(=O)N[C@@H](CC(=O)O)C(=O)N[C@@H](Cc1ccccc1)C(=O)N[C@H](C(=O)N[C@@H](CCCCNC(=O)CC[C@H](NC(=O)CC[C@H](NC(=O)COCCOCCNC(=O)COCCOCCNC(=O)CC[C@H](NC(=O)CCCCCCCCCCCCCCC(=O)O)C(=O)O)C(=O)O)C(=O)O)C(=O)N[C@@H](Cc1c[nH]c2ccccc12)C(=O)N[C@@H](CC(C)C)C(=O)N[C@@H](CC(C)C)C(=O)N[C@@H](CO)C(=O)N[C@H](C(=O)O)[C@@H](C)O)C(C)C` [Example 85, N^ε24-[(4S)-4-carboxy-4-[[(4S)-4-carboxy-4-[[2-[2-[2-[[2-[2-[2-[[(4S)-4-carboxy-4-(15-carboxypentadecanoylamino)butanoyl]amino]ethoxy]ethoxy]acetyl]amino]ethoxy]ethoxy]acetyl]amino]butanoyl]amino]butanoyl]-[Leu16,Lys24,Leu27,Ser28]-Glucagon], the “Chemical stability [Purity loss/14 days 37 C.]” value in data set [1] was 7.4%. In data set [2], this compound displayed an EC50 of 0.039 nM.

As for `CC(C)C[C@H](NC(=O)[C@H](Cc1c[nH]c2ccccc12)NC(=O)[C@H](CCCCNC(=O)CC[C@H](NC(=O)CC[C@H](NC(=O)COCCOCCNC(=O)COCCOCCNC(=O)CC[C@H](NC(=O)CCCCCCCCCCCCCCC(=O)O)C(=O)O)C(=O)O)C(=O)O)NC(=O)[C@@H](NC(=O)[C@H](Cc1ccccc1)NC(=O)[C@H](CC(=O)O)NC(=O)[C@H](CCC(N)=O)NC(=O)[C@H](C)NC(=O)[C@H](CCCNC(=N)N)NC(=O)[C@H](CCCNC(=N)N)NC(=O)[C@@H](NC(=O)[C@H](CC(=O)O)NC(=O)[C@H](CC(C)C)NC(=O)[C@H](Cc1ccc(O)cc1)NC(=O)[C@H](CCCCN)NC(=O)[C@H](CO)NC(=O)[C@H](Cc1ccc(O)cc1)NC(=O)[C@H](CC(=O)O)NC(=O)[C@H](CO)NC(=O)[C@@H](NC(=O)[C@H](Cc1ccccc1)NC(=O)[C@@H](NC(=O)CNC(=O)[C@H](CCC(N)=O)NC(=O)[C@H](CO)NC(=O)[C@@H](N)Cc1c[nH]cn1)[C@@H](C)O)[C@@H](C)O)C(C)C)C(C)C)C(=O)N[C@@H](CC(C)C)C(=O)N[C@@H](CO)C(=O)N[C@H](C(=O)O)[C@@H](C)O` [Example 95, N^ε24-[(4S)-4-carboxy-4-[[(4S)-4-carboxy-4-[[2-[2-[2-[[2-[2-[2-[[(4S)-4-carboxy-4-(15-carboxypentadecanoylamino)butanoyl]amino]ethoxy]ethoxy]acetyl]amino]ethoxy]ethoxy]acetyl]amino]butanoyl]amino]butanoyl]-[Val16,Lys24,Leu27,Ser28]-Glucagon] (H-HSQGTFTSDYSKYLDVRRAQDFVK([γGlu-γGlu-AEEA-AEEA-γGlu-C16 diacid])WLLST-OH; N-terminus and C-terminus assumed), the “Chemical stability [Purity loss/14 days 37 C.]” value in data set [1] came out at 5.1%. In addition, the EC50 in data set [2] turned out to be 0.009 nM.

In the case of `CC(C)C[C@H](NC(=O)[C@H](Cc1c[nH]c2ccccc12)NC(=O)[C@H](CCCCNC(=O)CC[C@H](NC(=O)CC[C@H](NC(=O)COCCOCCNC(=O)COCCOCCNC(=O)CC[C@H](NC(=O)CCCCCCCCCCCCCCCCC(=O)O)C(=O)O)C(=O)O)C(=O)O)NC(=O)[C@@H](NC(=O)[C@H](Cc1ccccc1)NC(=O)[C@H](CC(=O)O)NC(=O)[C@H](CCC(N)=O)NC(=O)[C@H](C)NC(=O)[C@H](CCCNC(=N)N)NC(=O)[C@H](CCCNC(=N)N)NC(=O)[C@@H](NC(=O)[C@H](CC(=O)O)NC(=O)[C@H](CC(C)C)NC(=O)[C@H](Cc1ccc(O)cc1)NC(=O)[C@H](CCCCN)NC(=O)[C@H](CO)NC(=O)[C@H](Cc1ccc(O)cc1)NC(=O)[C@H](CC(=O)O)NC(=O)[C@H](CO)NC(=O)[C@@H](NC(=O)[C@H](Cc1ccccc1)NC(=O)[C@@H](NC(=O)CNC(=O)[C@H](CCC(N)=O)NC(=O)[C@H](CO)NC(=O)[C@@H](N)Cc1c[nH]cn1)[C@@H](C)O)[C@@H](C)O)[C@@H](C)O)C(C)C)C(=O)N[C@@H](CC(C)C)C(=O)N[C@@H](CO)C(=O)N[C@H](C(=O)O)[C@@H](C)O` [Example 12, N^ε24-[(4S)-4-carboxy-4-[[(4S)-4-carboxy-4-[[2-[2-[2-[[2-[2-[2-[[(4S)-4-carboxy-4-(17-carboxyheptadecanoylamino)butanoyl]amino]ethoxy]ethoxy]acetyl]amino]ethoxy]ethoxy]acetyl]amino]butanoyl]amino]butanoyl]-[Thr^16,Lys^24,Leu^27,Ser^28]-Glucagon], the “Chemical stability [Purity loss/14 days 37 C.]” value in data set [1] is listed as 7.0%. In data set [2], this compound came in with an EC50 of 0.075 nM.

Regarding `CC(C)C[C@H](NC(=O)[C@H](Cc1ccc(O)cc1)NC(=O)[C@H](CCCCN)NC(=O)[C@H](CO)NC(=O)[C@H](Cc1ccc(O)cc1)NC(=O)[C@H](CC(=O)O)NC(=O)[C@H](CO)NC(=O)[C@@H](NC(=O)[C@H](Cc1ccccc1)NC(=O)[C@@H](NC(=O)CNC(=O)[C@H](CCC(N)=O)NC(=O)[C@H](CO)NC(=O)[C@@H](N)Cc1c[nH]cn1)[C@@H](C)O)[C@@H](C)O)C(=O)N[C@@H](CCC(=O)O)C(=O)N[C@@H](CO)C(=O)N[C@@H](CCCNC(=N)N)C(=O)N[C@@H](CCCNC(=N)N)C(=O)N[C@@H](C)C(=O)N[C@@H](CCC(N)=O)C(=O)N[C@@H](CC(=O)O)C(=O)N[C@@H](Cc1ccccc1)C(=O)N[C@H](C(=O)N[C@@H](CCCCNC(=O)CC[C@H](NC(=O)CC[C@H](NC(=O)COCCOCCNC(=O)CC[C@H](NC(=O)CCCS(=O)(=O)NC(=O)CCCCCCCCCCCCCCCc1nnn[nH]1)C(=O)O)C(=O)O)C(=O)O)C(=O)N[C@@H](Cc1c[nH]c2ccccc12)C(=O)N[C@@H](CC(C)C)C(=O)N[C@@H](CC(C)C)C(=O)N[C@@H](CO)C(=O)N[C@H](C(=O)O)[C@@H](C)O)C(C)C` [Example 65, N^ε24-[(4S)-4-carboxy-4-[[(4S)-4-carboxy-4-[[2-[2-[2-[[(4S)-4-carboxy-4-[4-[16-(1H-tetrazol-5-yl)hexadecanoylsulfarnoyl]butanoylamino]butanoyl]amino]ethoxy]ethoxy]acetyl]amino]butanoyl]amino]butanoyl]-[Glu15,Lys24,Leu27,Ser28]-Glucagon] (H-HSQGTFTSDYSKYLESRRAQDFVK([γGlu-γGlu-AEEA-γGlu-X1])WLLST-OH; N-terminus and C-terminus assumed), the “Chemical stability [Purity loss/14 days 37 C.]” value in data set [1] is 7.8%. Further, the EC50 in data set [2] was found to be 0.362 nM.
